Assay results taken from US20080009448A1, “Peptide Derivative” (priority 2006, published 2008).

System: heat nociceptive stimulation
Assay: Anti-nociceptive activity test, tail-flick method
Type: in vivo, mouse
Conditions: for Oral ED50 / Subcutaneous ED50 / activity-peak time after the subcutaneous administration / activity-peak time after the oral administration: mice; for Oral ED50 / Subcutaneous ED50: at activity-peak time, parentheses = 95% confidence limit
Protocol: (1) Experimental animal, male ddy mice (Japan SLC), weighing the body weight in the range of 22 to 25 g, were used for the studies. The animals had been kept under constant conditions (room temperature 22±2° C., humidity 55±5%, 12 hours light-and-dark cycle having light time 9:00 to 21:00 and dark time 21:00 to 9:00) until used for an experiment. The animals were fed the mouse solid diet (F2, Funabashi farm. Funabashi, Japan) with unrestricted tap water intake.
SS8225-01, 02, 03 04, 05, 06, 07 and 08 as examples and SS8225-09, 10, 11 and 12 as comparison examples were used as the administered drugs. […] In addition only Liger solution was administered as an experimental control. The animals were left for 60 minutes in the plastic cage to become familiar to the environment prior to the test in which measured a latent time for each mouse before drug administration in accordance with a tail-flick method noted below. Heat was radiated to a part of each mouse tail which is 2 cm from the end of its tail. Each of heat radiation periods before beginning of tail-flick was measured as a false pain threshold. Mice which responded to the stimulation within 2.5 to 3.5 seconds were pre-selected for the test. Administration solution under one administration condition for one kind of drug was administered to one experimental animal group including 10 mice. After the body weight of each mouse was measured, each volume of the administration solution was adjusted to be 0.1 mL/10 g of mouse body weight and then the solution was administered. The administration methods were two methods of subcutaneous administration (s. c.) and oral administration (p. o.). On subcutaneous administration, the administration solution of 0.1 mL per 10 g of body weight (0.1 mL/10 g) was injected into the back of the mouse using 27 gauge needle. On oral administration, the administration solution of 0.1 mL per 10 g of body weight (0.1 mL/10 g) was administered using an oral sonde.
Heat was radiated to a part of each mouse's tail of respective experimental group, which is 2 cm from the end of its tail, at 15, 30 and 60 minutes after the drug administration according to the preset measurement interval and a latent time until respective mouse swung its tail was measured as a false pain threshold value. The maximum stimulation period (cut-off-time) was set as 10 seconds to minimize the damage to the stimulation part. The anti-nociceptive effect was evaluated quantitatively by calculating % MPE (% of maximum possible effect) according to the following formula. [formula] T1: A latent time until beginning of tail-flick before respective drug administration (seconds) T2: A latent time until beginning of tail-flick after respective drug administration (seconds) Tc: A maximum stimulation period (cut-off-time)
The graphs (FIG. 1, FIG. 3, FIG. 5, FIG. 7, FIG. 9, FIG. 11, FIG. 13, FIG. 15, FIG. 17, FIG. 19, FIG. 21, FIG. 23, FIG. 25, FIG. 27, FIG. 29, FIG. 31, FIG. 33 and FIG. 35) showing a time-course variation of % MPE were created, in which a vertical axis is an average value with a standard error (means ±S. E. M.) obtained by calculation of % MPE of respective animals of 10 mice every administration condition of respective drugs and a horizontal axis is a time after administration. After treating % MPE data of each animal of experimental groups with respective doses and % MPE data of each animal of the experimental group with a control Ringer's solution at the same measurement time every drugs using the two-way layout dispersion analysis (two-way ANOVA), the hazard-ratio of P<0.05 was decided to be a significant difference according to Bonferroni post-test.
A lasting time of anti-nociceptive activity of each drug in the present description is the lasting time of anti-nociceptive activity under the dose condition providing the longest lasting time.
ED50 is represented in the unit of mg/Kg.

[1] = s.c., doses of 0.5 mg/Kg and 0.25 mg/Kg

Substance	Oral ED50 (p.o.)	Subcutaneous ED50 (s.c.)	activity-peak time after the subcutaneous administration (s.c.)	lasting time of anti-nociceptive activity (s.c., dose of 0.25 mg/Kg)	further results
Iminoethyl-[DMT]-[D-Arg]-[Phe]-[N-MeLys]-OH [SS8225-12]	>10 mg/kg	>0.5 mg/kg			Oral ED50 (p.o., listed as Comparison Example 6): over 10 mg/Kg; Subcutaneous ED50 (s.c., listed as Comparison Example 6): over 0.5 mg/Kg
Iminoethyl-[DMT]-[D-Arg]-[Phe]-[N-MeβAla]-NH2 [SS8225-01]	>10 mg/kg	0.12 mg/kg	90 min		lasting time of anti-nociceptive activity [1]: not less than 7 hours
Iminoethyl-[DMT]-[D-Met(O)]-[Phe]-[N-MeLys]-NH2 [SS8225-05]	>10 mg/kg	0.10 mg/kg	120 min	7 h	
Iminoethyl-[DMT]-[D-Met(O)]-[Phe]-[N-MeβAla]-NH2 [SS8225-03]	>10 mg/kg	0.08 mg/kg	90 min		lasting time of anti-nociceptive activity [1]: 7 h
Iminoethyl-[Tyr]-[D-Arg]-[Phe]-[N-MeβAla]-NH2 [SS8225-02]	4.0 mg/kg	0.06 mg/kg	90 min		activity-peak time after the oral administration (p.o.): 4 h; lasting time of anti-nociceptive activity (p.o., dose of 10 mg/Kg): 10 h; lasting time of anti-nociceptive activity (s.c., dose of 0.125 mg/Kg): 6 h
Iminoethyl-[Tyr]-[D-Met(O)]-[Phe]-[N-MeLys]-NH2 [SS8225-06]	6.02 mg/kg	0.18 mg/kg	90 min	5 h	activity-peak time after the oral administration (p.o.): 2 h; lasting time of anti-nociceptive activity (p.o., dose of 10 mg/Kg): not less than 17 hours
Iminoethyl-[Tyr]-[D-Met(O)]-[Phe]-[N-MeLys]-NHCH3 [SS8225-08]	>10 mg/kg	0.1 mg/kg	90 min	5 h	
Iminoethyl-[Tyr]-[D-Met(O)]-[Phe]-[N-MeLys]-OH [SS8225-11]	>10 mg/kg	>0.5 mg/kg			Oral ED50 (p.o., listed as Comparison Example 5): over 10 mg/Kg; Subcutaneous ED50 (s.c., listed as Comparison Example 5): over 0.5 mg/Kg
[DMT]-[D-Arg]-[Phe]-[N-MeLys]-NH2 [SS8225-09]	>10 mg/kg	0.44 mg/kg	90 min		Oral ED50 (p.o., listed as Comparison Example 3): over 10 mg/Kg; lasting time of anti-nociceptive activity (s.c., dose of 1 mg/Kg): 5 h
[DMT]-[D-Met(O)]-[Phe]-[N-MeLys]-NH2 [SS8225-10]	>10 mg/kg	0.28 mg/kg	90 min		Oral ED50 (p.o., listed as Comparison Example 4): over 10 mg/Kg; lasting time of anti-nociceptive activity (s.c., dose of 0.5 mg/Kg): 6 h
